# Results published in patent publication US20080293683A1, “Hormone Replacement Therapy” (University of Kansas Medical Center, priority 2007, published 2008).
# Values joined by “and” are separate entries in the source; they are usually repeats but may differ in a detail not shown here. Equal values may be shown once. Read-outs that look alike come from different tables or passages of the source.
# Key:
# recombinant human ERα = molecular target: T1, recombinant human ERα (Homo sapiens, UniProt P03372); assay: ERα binding assay: competition of [3H]E2 binding by competing estrogens; details: for RBAα % (relative binding affinity for ERα, of E2): calculated against E2 = 100; for RBAα/RBAβ: ratio of relative binding affinities ERα over ERβ; for IC50: read-out: ERα IC50; for binding affinity for ERα (in words): concentrations up to 1000 nM; for RBAα/RBAβ determined by extrapolating the curves: extrapolated from curves of FIGS. 3-7, IC50 not reached
# T1 construct: purchased PanVera Corporation (Madison, Wis.); host or cells: baculovirus-mediated expression system
# T1 sequence (P03372 1-595): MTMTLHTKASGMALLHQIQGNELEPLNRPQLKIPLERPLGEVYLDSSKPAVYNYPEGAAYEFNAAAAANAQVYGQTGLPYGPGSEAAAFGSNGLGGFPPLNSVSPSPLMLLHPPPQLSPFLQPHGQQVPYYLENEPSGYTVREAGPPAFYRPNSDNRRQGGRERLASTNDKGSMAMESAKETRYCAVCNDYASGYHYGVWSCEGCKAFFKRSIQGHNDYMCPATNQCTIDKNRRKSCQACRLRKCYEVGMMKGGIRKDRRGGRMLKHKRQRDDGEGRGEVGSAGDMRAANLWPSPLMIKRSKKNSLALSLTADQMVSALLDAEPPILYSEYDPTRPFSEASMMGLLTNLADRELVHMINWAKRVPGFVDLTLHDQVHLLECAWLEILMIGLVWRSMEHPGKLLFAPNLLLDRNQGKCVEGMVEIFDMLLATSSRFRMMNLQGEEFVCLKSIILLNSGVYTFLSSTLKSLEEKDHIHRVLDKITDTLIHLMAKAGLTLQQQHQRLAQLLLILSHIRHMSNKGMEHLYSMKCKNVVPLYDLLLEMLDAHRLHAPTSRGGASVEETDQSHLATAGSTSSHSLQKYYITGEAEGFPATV
# Text: (§1) The recombinant human ERα and ERβ proteins and bovine serum albumin (BSA) were obtained from PanVera Corporation (Madison, Wis.). According to the supplier, the recombinant human ERα and ERβ were produced in a baculovirus-mediated expression system, and they were soluble and functionally active, with post-translational modifications similar to those found in mammalian cells. See Reid et al., Human estrogen receptor-α: Regulation by synthesis, modification and degradation, Cell. Mol. Life.
# (§2) The following buffer solutions were used in the ER binding assays, and they were prepared beforehand and stored at 4° C. The binding buffer consisted of 10% glycerol, 2 mM dithiothreitol, 1 mg/mL BSA and 10 mM Tris-HCl at pH 7.5. The ERα washing buffer contained 40 mM Tris-HCl and 100 mM KCl (pH 7.4), but the ERG washing buffer contained only 40 mM Tris-HCl (adjusted to pH 7.4). The 50% hydroxylapatite slurry was prepared first by vigorously mixing 10 g hydroxylapatite with 60 mL of the Tris-HCl solution (50 mM, pH 7.4). Hydroxylapatite was then allowed to settle for 20 minutes at room temperature, and the supernatant was decanted. The above procedures were repeated 10 times, and afterwards hydroxylapatite was kept in the 50 mM Tris-HCl solution overnight at 4° C. Hydroxylapatite slurry was then adjusted to an approximate final concentration of 50% (v/v) using the same Tris-HCl solution and stored at 4° C., and the slurry was stable for up to several months.
# (§3) Note that all of the estrogens were initially dissolved in pure ethanol to a stock concentration of 1 mM, and then further diluted to 100 μM with 20% aqueous ethanol. […] Immediately before the addition of the ERα or ERβ protein, it was diluted in the binding buffer and mixed gently with repetitive pipettings. […] The incubation mixture was then mixed gently and thoroughly with repetitive pipettings. […] The binding mixture was incubated at room temperature for two hours. At the end of the incubation, 100 μL of the hydroxylapatite slurry was added to each tube and the tubes were incubated on ice for 15 minutes with 3 times of brief vortexing. An aliquot (1 mL) of the appropriate washing buffer was added, mixed, and centrifuged at 10,000 g for five minutes, and the supernatants were discarded. This wash step was repeated twice. Hydroxylapatite pellets were then resuspended in 200 μL ethanol (followed by another rinse with 200 μL ethanol), and then the content was transferred to scintillation vials (containing 4 mL of the scintillation fluid) for measurement of ^3H-radioactivity with a liquid scintillation counter (Packard Tri-CARB 2900 TR; Downers Grove, Ill.).
# (§4) To calculate the specific binding (pmol/mL) of the human ERα or ERβ protein at each concentration point, the following equation was used: […]
# (§5) When a lower radioligand concentration is used, the corresponding IC50 value will also be relatively lower, but when the radioligand concentration increases, the corresponding IC50 value will also increase. […] Since the RBA value is a parameter that is independent of the radioligand concentration used, we thus have placed more emphasis on the RBA values instead of the absolute IC50 values in interpreting the physiological meanings of the data from in vitro receptor competition assays.
# recombinant human ERβ = molecular target: T2, recombinant human ERβ (Homo sapiens, UniProt Q92731); assay: ERβ binding assay: competition of [3H]E2 binding by competing estrogens; details: for RBAβ (%) (relative binding affinity for ERβ, of E2): calculated against E2 = 100; for IC50: read-out: ERβ IC50; for binding affinity for ERβ (in words): concentrations up to 1000 nM
# T2 construct: purchased PanVera Corporation (Madison, Wis.); host or cells: baculovirus-mediated expression system
# Text: as §1, §2, §3, §4, §5
# [1] = [3H]E2 10 nM, competitor up to 1000 nM
# T2 sequence (Q92731 whole entry): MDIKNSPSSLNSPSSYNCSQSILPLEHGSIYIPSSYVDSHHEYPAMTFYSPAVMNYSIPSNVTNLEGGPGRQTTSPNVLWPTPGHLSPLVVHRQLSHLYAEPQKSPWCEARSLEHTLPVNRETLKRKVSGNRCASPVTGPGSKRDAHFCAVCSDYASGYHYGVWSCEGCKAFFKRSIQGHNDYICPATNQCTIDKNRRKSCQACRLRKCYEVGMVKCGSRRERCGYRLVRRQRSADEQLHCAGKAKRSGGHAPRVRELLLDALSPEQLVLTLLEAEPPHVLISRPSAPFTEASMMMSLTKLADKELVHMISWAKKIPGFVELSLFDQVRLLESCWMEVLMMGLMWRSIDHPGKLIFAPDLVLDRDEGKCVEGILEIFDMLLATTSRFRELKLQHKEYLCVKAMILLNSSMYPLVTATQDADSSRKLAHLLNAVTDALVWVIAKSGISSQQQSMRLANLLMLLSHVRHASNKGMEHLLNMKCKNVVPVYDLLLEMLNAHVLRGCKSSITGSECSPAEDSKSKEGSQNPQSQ
SMILES,"RBAα % (relative binding affinity for ERα, of E2) (recombinant human ERα)",RBAα/RBAβ (recombinant human ERα),IC50 (recombinant human ERα),"RBAβ (%) (relative binding affinity for ERβ, of E2) (recombinant human ERβ)",IC50 (recombinant human ERβ),binding affinity for ERα (in words) (recombinant human ERα),binding affinity for ERβ (in words) (recombinant human ERβ),also measured
"Cc1cc(O)cc2c1[C@H]1CC[C@]3(C)[C@@H](O)CC[C@H]3[C@@H]1CC2 [1-Methyl-E2, 1-Methylestradiol]",14%,1.8,0.0794 µM,8%,0.112 µM,,,RBAα/RBAβ (recombinant human ERα; listed as 1-methylestradiol): about 1.8; decrease of binding affinity for ERα compared to E2 (recombinant human ERα; relative to E2): approximately 90%; decrease of binding affinity for ERβ compared to E2 (recombinant human ERβ; relative to E2): approximately 90%
"COc1cc2c(cc1OC)[C@H]1CC[C@]3(C)C(=O)CC[C@H]3[C@@H]1CC2 [2,3-diMeO-E1, Estrone 2,3-dimethyl ether]",,,> 1 µM,,> 1 µM,,,
"COc1cc2c(cc1OC)C1CCC3(C)C(O)CCC3C1CC2 (stereo not drawn) [2,3-diMeO-E2, 17β-Estradiol 2,3-dimethyl ether]",,,> 1 µM,,> 1 µM,,,
"CC12CCC3c4cc(Br)c(O)cc4CCC3C1CCC2O (centres unmarked) [2-Br-E2, 2-Bromoestradiol]",4%,10,0.281 µM,< 0.5% and 0.4%,2.51 µM,,,RBAα/RBAβ (recombinant human ERα; listed as 2-bromoestradiol): about 10
"CCOc1cc2c(cc1O)CCC1C2CCC2(C)C(O)CCC12 (centres unmarked) [2-Ethoxy-E2, 2-Ethoxyestradiol]",,,> 1 µM,,> 1 µM,weak binding affinity,weak binding affinity,
"COc1cc2c(cc1O)CC[C@@H]1[C@@H]2CC[C@]2(C)C(=O)CC[C@@H]12 [2-MeO-E1, 2-Methoxyestrone]",,,,,,did not have appreciable binding affinity,did not have appreciable binding affinity,IC50 (recombinant human ERα; [1]): > 1 µM; RBAα/RBAβ determined by extrapolating the curves (recombinant human ERα): about 1; IC50 (recombinant human ERβ; [1]): > 1 µM
"COc1cc2c(cc1O)CC[C@@H]1[C@@H]2CC[C@]2(C)[C@@H](O)CC[C@@H]12 [2-MeO-E2, 2-Methoxyestradiol]",2%,2,,1%,,,,IC50 (recombinant human ERα; [1]): 0.501 µM; RBAα/RBAβ (recombinant human ERα; listed as 2-methoxyestradiol): about 2; IC50 (recombinant human ERβ; [1]): 0.631 µM
"C[C@]12CC[C@@H]3c4cc(N)c(O)cc4CC[C@H]3[C@@H]1CCC2=O [2-NH2-E1, 2-Aminoestrone]",3%,7.5,0.398 µM,0.4%,2.51 µM,very weak binding affinities,very weak binding affinities,RBAα/RBAβ (recombinant human ERα; listed as 2-aminoestrone): about 7.5
"C[C@]12CC[C@@H]3c4cc([N+](=O)[O-])c(O)cc4CC[C@H]3[C@@H]1CCC2=O [2-NO2-E1, 2-Nitroestrone]",1%,,1.58 µM,,> 1 µM,very weak binding affinities,very weak binding affinities,RBAα/RBAβ determined by extrapolating the curves (recombinant human ERα): about 3; RBAα/RBAβ determined by extrapolating the curves (recombinant human ERα; listed as 2-nitorestrone): ~3
"COc1cc2c(cc1O)[C@H]1CC[C@]3(C)C(=O)CC[C@H]3[C@@H]1CC2 [2-OH-3-MeO-E1, 2-Hydroxyestrone 3-methyl ether]",,,> 1 µM,,> 1 µM,did not have appreciable binding affinity,did not have appreciable binding affinity,
"COc1cc2c(cc1O)[C@H]1CC[C@]3(C)[C@@H](O)CC[C@H]3[C@@H]1CC2 [2-OH-3-MeO-E2, 2-Hydroxyestradiol 3-methyl ether]",,,> 1 µM,,> 1 µM,substantially weaker binding affinity,substantially weaker binding affinity,
